This note sets out measurements from patent US10927123B2, “Modulators of the beta-3 adrenergic receptor useful for the treatment or prevention of disorders related thereto” (Arena Pharmaceuticals, Inc., priority 2016, dated 2021).

For the experiment, the target named is Beta-3 Adrenergic Receptor (Homo sapiens (Human), UniProt P13945). In words: HTRF cAMP antagonist assay (IC50 determination). It is filed as cell-based. The settings on record: CHO-K1 cells stably expressing recombinant receptor; antagonism of isoproterenol at EC90; cAMP readout. In outline:
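Antagonist mode: isoproterenol at its predetermined EC90 added after compound to recombinant CHO-K1 cells in IBMX-containing PBS, 1 h, room temperature. Compounds tested as 5-fold, 10-point dilutions, top final typically 10 or 100 μM. HTRF signal converted to cAMP via standard curve, giving IC50.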
For orientation: Time-resolved FRET reads energy transfer from a long-lived donor to a nearby acceptor.

Chain of Beta-3 Adrenergic Receptor (P13945 whole entry, species assumed): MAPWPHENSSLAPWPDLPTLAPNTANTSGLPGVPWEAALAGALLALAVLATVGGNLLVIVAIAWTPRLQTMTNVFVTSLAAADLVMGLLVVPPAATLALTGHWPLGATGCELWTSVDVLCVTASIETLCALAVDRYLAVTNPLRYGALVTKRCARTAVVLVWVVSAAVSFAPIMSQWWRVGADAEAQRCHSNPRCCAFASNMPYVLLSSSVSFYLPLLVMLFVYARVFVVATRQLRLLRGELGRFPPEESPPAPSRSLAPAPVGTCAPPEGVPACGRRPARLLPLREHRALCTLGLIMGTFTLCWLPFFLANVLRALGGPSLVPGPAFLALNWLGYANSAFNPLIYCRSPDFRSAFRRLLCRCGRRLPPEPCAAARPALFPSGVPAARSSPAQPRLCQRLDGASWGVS

On to `CCn1cc(S(=O)(=O)N2CCC3(CC2)C[C@@H](NC[C@H](O)COc2cccc(S(=O)(=O)C4CC4)c2)CO3)c(=O)c2cc(C)ccc21` [Compound 317, 3-((R)-3-((S)-3-(3-(cyclopropylsulfonyl)phenoxy)-2-hydroxypropylamino)-1-oxa-8-azaspiro[4.5]decan-8-ylsulfonyl)-1-ethyl-6-methylquinolin-4(1H)-one], for which the half-maximal inhibitory concentration (IC50) – broadly, the concentration that inhibits the measured activity by half – is 104 nM.
With `CCn1cc(S(=O)(=O)N2CCC3(CC2)C[C@@H](NC[C@H](O)COc2cccc(S(=O)(=O)C4CC4)c2)CO3)c(=O)c2ccc(C)cc21` [Compound 318, 3-((R)-3-((S)-3-(3-(cyclopropylsulfonyl)phenoxy)-2-hydroxypropylamino)-1-oxa-8-azaspiro[4.5]decan-8-ylsulfonyl)-1-ethyl-7-methylquinolin-4(1H)-one] the figure was 95.2 nM; with `O=S(=O)(c1cccc(OC[C@@H](O)CN[C@H]2COC3(CCN(S(=O)(=O)c4cnc5cn[nH]c5c4)CC3)C2)c1)C1CC1` [Compound 319, (S)-1-((R)-8-(1H-pyrazolo[4,3-b]pyridin-6-ylsulfonyl)-1-oxa-8-azaspiro[4.5]decan-3-ylamino)-3-(3-(cyclopropylsulfonyl)phenoxy)propan-2-ol], 16.5 nM.
As for `CS(=O)(=O)c1cccc(OC[C@@H](O)CN[C@H]2COC3(CCN(S(=O)(=O)c4cnc5cc[nH]c5c4)CC3)C2)c1` [Compound 320, (S)-1-((R)-8-(1H-pyrrolo[3,2-b]pyridin-6-ylsulfonyl)-1-oxa-8-azaspiro[4.5]decan-3-ylamino)-3-(3-(methylsulfonyl)phenoxy)propan-2-ol], the half-maximal inhibitory concentration (IC50) amounted to 11.2 nM.
On to `CC(C)S(=O)(=O)c1cccc(OC[C@@H](O)CN[C@H]2COC3(CCN(S(=O)(=O)c4cnc5cc[nH]c5c4)CC3)C2)c1` [Compound 321, (S)-1-((R)-8-(1H-pyrrolo[3,2-b]pyridin-6-ylsulfonyl)-1-oxa-8-azaspiro[4.5]decan-3-ylamino)-3-(3-(isopropylsulfonyl)phenoxy)propan-2-ol], for which the concentration for half-maximal inhibition (IC50) amounted to 17.8 nM.
The value for `CCn1cc(S(=O)(=O)N2CCC3(CC2)C[C@@H](NC[C@H](O)COc2cccc(S(C)(=O)=O)c2)CO3)c(=O)c2cccc(F)c21` [Compound 322, 1-ethyl-8-fluoro-3-((R)-3-((S)-2-hydroxy-3-(3-(methylsulfonyl)phenoxy)propylamino)-1-oxa-8-azaspiro[4.5]decan-8-ylsulfonyl)quinolin-4(1H)-one] was 21.8 nM; that for `CC(C)S(=O)(=O)c1cccc(OC[C@@H](O)CN[C@H]2COC3(CCN(S(=O)(=O)c4cnc5c(F)cccc5c4O)CC3)C2)c1` [Compound 323, 8-fluoro-3-((R)-3-((S)-2-hydroxy-3-(3-(isopropylsulfonyl)phenoxy)propylamino)-1-oxa-8-azaspiro[4.5]decan-8-ylsulfonyl)quinolin-4-ol] was 49.6 nM.
With `Cc1ccc2ncc(S(=O)(=O)N3CCC4(CC3)C[C@@H](NC[C@H](O)COc3cccc(S(=O)(=O)C5CC5)c3)CO4)c(O)c2c1` [Compound 324, 3-((R)-3-((S)-3-(3-(cyclopropylsulfonyl)phenoxy)-2-hydroxypropylamino)-1-oxa-8-azaspiro[4.5]decan-8-ylsulfonyl)-6-methylquinolin-4-ol] the figure was 22.5 nM; with `O=S(=O)(c1cccc(OC[C@@H](O)CN[C@H]2COC3(CCN(S(=O)(=O)c4cnc5ccc(F)cc5c4O)CC3)C2)c1)C1CC1` [Compound 325, 3-((R)-3-((S)-3-(3-(cyclopropylsulfonyl)phenoxy)-2-hydroxypropylamino)-1-oxa-8-azaspiro[4.5]decan-8-ylsulfonyl)-6-fluoroquinolin-4-ol], 34 nM.
With `O=c1c(S(=O)(=O)N2CCC3(CC2)C[C@@H](NC[C@H](O)COc2cccc(S(=O)(=O)C4CC4)c2)CO3)c[nH]c2ccccc12` [Compound 326, 3-((R)-3-((S)-3-(3-(cyclopropylsulfonyl)phenoxy)-2-hydroxypropylamino)-1-oxa-8-azaspiro[4.5]decan-8-ylsulfonyl)quinolin-4(1H)-one] the figure was 17.3 nM; with `Cc1cccc2c(O)c(S(=O)(=O)N3CCC4(CC3)C[C@@H](NC[C@H](O)COc3cccc(S(=O)(=O)C5CC5)c3)CO4)cnc12` [Compound 327, 3-((R)-3-((S)-3-(3-(cyclopropylsulfonyl)phenoxy)-2-hydroxypropylamino)-1-oxa-8-azaspiro[4.5]decan-8-ylsulfonyl)-8-methylquinolin-4-ol], 28.9 nM.
`O=S(=O)(c1cccc(OC[C@@H](O)CN[C@H]2COC3(CCN(S(=O)(=O)c4cnc5c(F)cccc5c4O)CC3)C2)c1)C1CC1` [Compound 328, 3-((R)-3-((S)-3-(3-(cyclopropylsulfonyl)phenoxy)-2-hydroxypropylamino)-1-oxa-8-azaspiro[4.5]decan-8-ylsulfonyl)-8-fluoroquinolin-4-ol]: the IC50 is 35.4 nM.
With `O=S(=O)(c1cccc(OC[C@@H](O)CN[C@H]2COC3(CCN(S(=O)(=O)c4cnc5cc(F)ccc5c4O)CC3)C2)c1)C1CC1` [Compound 329, 3-((R)-3-((S)-3-(3-(cyclopropylsulfonyl)phenoxy)-2-hydroxypropylamino)-1-oxa-8-azaspiro[4.5]decan-8-ylsulfonyl)-7-fluoroquinolin-4-ol] the figure was 29.5 nM; with `Cc1ccc2c(O)c(S(=O)(=O)N3CCC4(CC3)C[C@@H](NC[C@H](O)COc3cccc(S(=O)(=O)C5CC5)c3)CO4)cnc2c1` [Compound 330, 3-((R)-3-((S)-3-(3-(cyclopropylsulfonyl)phenoxy)-2-hydroxypropylamino)-1-oxa-8-azaspiro[4.5]decan-8-ylsulfonyl)-7-methylquinolin-4-ol], 70.1 nM; with `CCn1cc(S(=O)(=O)N2CCC3(CC2)C[C@@H](NC[C@H](O)COc2cccc(S(=O)(=O)C(C)C)c2)CO3)c(=O)c2cccc(F)c21` [Compound 331, 1-ethyl-8-fluoro-3-((R)-3-((S)-2-hydroxy-3-(3-(isopropylsulfonyl)phenoxy)propylamino)-1-oxa-8-azaspiro[4.5]decan-8-ylsulfonyl)quinolin-4(1H)-one], 30 nM.
The value for `CCn1cc(S(=O)(=O)N2CCC3(CC2)C[C@@H](NC[C@H](O)COc2cccc(S(=O)(=O)C(C)C)c2)CO3)c(=O)c2ccccc21` [Compound 332, 1-ethyl-3-((R)-3-((S)-2-hydroxy-3-(3-(isopropylsulfonyl)phenoxy)propylamino)-1-oxa-8-azaspiro[4.5]decan-8-ylsulfonyl)quinolin-4(1H)-one] was 42.3 nM.
The value for `CCn1cc(S(=O)(=O)N2CCC3(CC2)C[C@@H](NC[C@H](O)COc2cccc(S(=O)(=O)C4CC4)c2)CO3)c(=O)c2cccc(F)c21` [Compound 333, 3-((R)-3-((S)-3-(3-(cyclopropylsulfonyl)phenoxy)-2-hydroxypropylamino)-1-oxa-8-azaspiro[4.5]decan-8-ylsulfonyl)-1-ethyl-8-fluoroquinolin-4(1H)-one] was 16.3 nM.
For `CS(=O)(=O)c1ccc(OC[C@@H](O)CNC2COC3(CCN(S(=O)(=O)c4ccc5ccccc5c4)CC3)C2)cc1` (stereo partly drawn) [Compound 334, (2S)-1-(4-(methylsulfonyl)phenoxy)-3-(8-(naphthalen-2-ylsulfonyl)-1-oxa-8-azaspiro[4.5]decan-3-ylamino)propan-2-ol], the half-inhibitory concentration (IC50) worked out at 79.9 nM.
Turning to `CS(=O)(=O)Cc1cccc(OC[C@@H](O)CNC2COC3(CCN(S(=O)(=O)c4ccc5ccccc5c4)CC3)C2)c1` (stereo partly drawn) [Compound 335, (2S)-1-(3-(methylsulfonylmethyl)phenoxy)-3-(8-(naphthalen-2-ylsulfonyl)-1-oxa-8-azaspiro[4.5]decan-3-ylamino)propan-2-ol], the half-inhibitory concentration (IC50) was found to be 14.4 nM.
With `CS(=O)(=O)Cc1cccc(OC[C@@H](O)CN[C@H]2COC3(CCN(S(=O)(=O)c4ccc5ncccc5c4)CC3)C2)c1` [Compound 336, (S)-1-(3-(methylsulfonylmethyl)phenoxy)-3-((R)-8-(quinolin-6-ylsulfonyl)-1-oxa-8-azaspiro[4.5]decan-3-ylamino)propan-2-ol] the figure was 102 nM; with `CCn1cc(S(=O)(=O)N2CCC3(CC2)C[C@@H](NC[C@@H](O)COc2cccc(S(C)(=O)=O)c2)CO3)c(=O)c2ccccc21` [Compound 337, 1-ethyl-3-((R)-3-((R)-2-hydroxy-3-(3-(methylsulfonyl)phenoxy)propylamino)-1-oxa-8-azaspiro[4.5]decan-8-ylsulfonyl)quinolin-4(1H)-one], 1690 nM; with `CCn1cc(S(=O)(=O)N2CCC3(CC2)C[C@H](NC[C@H](O)COc2cccc(S(C)(=O)=O)c2)CO3)c(=O)c2ccccc21` [Compound 338, 1-ethyl-3-((S)-3-((S)-2-hydroxy-3-(3-(methylsulfonyl)phenoxy)propylamino)-1-oxa-8-azaspiro[4.5]decan-8-ylsulfonyl)quinolin-4(1H)-one], 32.2 nM.
